Reference: the supplement of paper PMC10307832

Key:
Experiment in all cases: relative viability (nuclei count vs DMSO), 5 days (fraction); higher = more cells survive
Irinotecan + Crizotinib = compound: CCc1c2c(nc3ccc(OC(=O)N4CCC(N5CCCCC5)CC4)cc13)-c1cc3c(c(=O)n1C2)COC(=O)[C@]3(O)CC [Irinotecan] + C[C@@H](Oc1cc(-c2cnn(C3CCNCC3)c2)cnc1N)c1c(Cl)ccc(F)c1Cl [Crizotinib] (partner 1 µM)
In short: (§1)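 Lung cancer cell lines in 1536-well plates were dosed by pin tool the day after seeding, either with one drug alone or with a fixed anchor-drug dose plus five library-drug doses (not always all listed) in √10 steps. After 5 days, cells were fixed and their nuclei stained in one step (final 0.05% Triton X-100, 1% formaldehyde, 1 ug/ml Hoechst), then counted on 4× images. Relative viability is the nuclei count in treated wells divided by that in vehicle wells. Values are medians of duplicate plates.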

Irinotecan + Decitabine = compound: CCc1c2c(nc3ccc(OC(=O)N4CCC(N5CCCCC5)CC4)cc13)-c1cc3c(c(=O)n1C2)COC(=O)[C@]3(O)CC [Irinotecan] + Nc1ncn([C@H]2C[C@H](O)[C@@H](CO)O2)c(=O)n1 [Decitabine] (partner 2 µM)
In short: as §1

Irinotecan + Vorinostat = compound: CCc1c2c(nc3ccc(OC(=O)N4CCC(N5CCCCC5)CC4)cc13)-c1cc3c(c(=O)n1C2)COC(=O)[C@]3(O)CC [Irinotecan] + O=C(CCCCCCC(=O)Nc1ccccc1)NO [Vorinostat] (partner 1 µM)
In short: as §1

MK-8033 + Vorinostat = compound: Cn1cc(-c2cnc3ccc4ccc(CS(=O)(=O)NCc5ccccn5)cc4c(=O)c3c2)cn1 [MK-8033] + O=C(CCCCCCC(=O)Nc1ccccc1)NO [Vorinostat] (partner 1 µM)
In short: as §1

Cell Line	relative viability (Irinotecan + Crizotinib; first compound 2 µM)	relative viability (Irinotecan + Crizotinib; first compound 6.325 µM)	relative viability (Irinotecan + Crizotinib; first compound 20 µM)	relative viability (Irinotecan + Decitabine; first compound 0.6325 µM)	relative viability (Irinotecan + Decitabine; first compound 2 µM)	relative viability (Irinotecan + Decitabine; first compound 6.325 µM)	relative viability (Irinotecan + Decitabine; first compound 20 µM)	relative viability (Irinotecan + Vorinostat; first compound 0.6325 µM)	relative viability (Irinotecan + Vorinostat; first compound 2 µM)	relative viability (Irinotecan + Vorinostat; first compound 6.325 µM)	relative viability (Irinotecan + Vorinostat; first compound 20 µM)	relative viability (MK-8033 + Vorinostat; first compound 0.02 µM)	relative viability (MK-8033 + Vorinostat; first compound 0.06325 µM)	relative viability (MK-8033 + Vorinostat; first compound 0.2 µM)	relative viability (MK-8033 + Vorinostat; first compound 0.6325 µM)	relative viability (MK-8033 + Vorinostat; first compound 2 µM)	relative viability (Irinotecan + Crizotinib; first compound 0.6325 µM)
NCI-H1651	0.693	0.479	0.135	0.264	0.486	0.18	0.137	0.362	0.533	0.364	0.158	0.665	0.484	0.593	0.597	0.633	
NCI-H1355	0.407	0.234	0.233		0.27	0.19	0.242		0.578	0.36	0.26	0.62	0.549	0.62	0.658	0.592	0.896
NCI-H1563	0.882	0.865	0.344														0.865
NCI-H1650	1.23	0.391	0.179	0.322	0.296	0.276	0.207	0.518	0.349	0.351	0.162	0.507	0.416	0.723	0.532	0.562	0.918
HCC-78	0.312	0.222	0.181	0.607	0.479	0.335	0.328	0.56	0.322	0.291	0.288	0.401	0.399	0.539	0.262	0.455	0.353
NCI-H1437	0.664	0.323	0.24	0.586	0.536	0.391	0.334	0.537	0.54	0.407	0.28	0.703	0.801	0.732	0.899	0.769	0.962
BEN	0.52	0.252	0.391	0.503	0.793	0.493	0.504	0.544	0.726	0.473	0.545	0.594	0.537	0.602	0.547	0.67	0.928
LCLC-103H	0.379	0.397	0.621	0.63	0.524	0.458	0.432	0.449	0.554	0.623	0.563	0.767	0.719	0.753	0.704	0.807	0.834
NCI-H1915	0.369	0.178	0.227	0.216	0.189	0.134	0.126	0.307	0.329	0.168	0.147	0.467	0.438	0.518	0.494	0.49	0.417
NCI-H2085	0.622	0.511	0.537	0.536	0.391	0.38	0.382	0.753	0.756	0.583	0.564	0.744	0.734	0.691	0.835	0.764	0.845
NCI-H23	0.463	0.295	0.348	0.288	0.243	0.211	0.251	0.467	0.451	0.234	0.199	0.678	0.455	0.405		0.587	0.514
EPLC-272H	0.163	0.2	0.264		0.33	0.223	0.151	0.428	0.389	0.357	0.254	0.434	0.332	0.38	0.422	0.551	0.504
EBC-1	0.165	0.203	0.151														0.191
SK-MES-1	0.767	0.272	0.298	0.398	0.483	0.282	0.143	0.821	0.756	0.372	0.193	1.2	0.987	1.03	1.04	1.03	0.93
A549	0.511	0.143	0.0565		0.26	0.197	0.0737										0.621
NCI-H2126	0.58	0.361	0.354	0.503	0.372	0.295	0.267	0.4	0.616	0.335	0.292	0.671	0.554	0.72	0.798	0.822	
NCI-H2087	0.396	0.259	0.203	0.146	0.218	0.196	0.159	0.235	0.215	0.165	0.16	0.788	0.368	0.749	0.728	0.692	0.476
EMC-BAC-2	0.291	0.216	0.19	0.933	0.719	0.432	0.277	0.224	0.297	0.283	0.225	0.619	0.346	0.421	0.454	0.476	0.332
SW 900					0.4	0.354	0.367		0.564	0.333	0.373	0.593	0.394	0.377	0.541	0.348	
NCI-H647	0.365	0.227	0.198	0.39	0.238	0.157	0.159	0.679	0.398	0.139	0.0969	0.633	0.378	0.527	0.598	0.75	0.852
NCI-H520	0.524	0.279	0.225	0.392	0.396	0.267	0.195	0.442	0.394	0.278	0.162	0.636	0.689	0.777	0.705	0.657	0.639
IA-LM	0.375	0.195	0.103						0.619	0.251	0.0877	0.828	0.976	0.938	1.01	0.965	0.774
LC-2-ad	0.314	0.258	0.186	0.532	0.355	0.338	0.262	0.312	0.373	0.283	0.181	0.786	0.651	0.618	0.75	0.659	0.359

Cell Line	relative viability (Irinotecan + Crizotinib; first compound 2 µM)	relative viability (Irinotecan + Crizotinib; first compound 6.325 µM)	relative viability (Irinotecan + Crizotinib; first compound 20 µM)	relative viability (Irinotecan + Decitabine; first compound 0.6325 µM)	relative viability (Irinotecan + Decitabine; first compound 2 µM)	relative viability (Irinotecan + Decitabine; first compound 6.325 µM)	relative viability (Irinotecan + Decitabine; first compound 20 µM)	relative viability (Irinotecan + Vorinostat; first compound 0.6325 µM)	relative viability (Irinotecan + Vorinostat; first compound 2 µM)	relative viability (Irinotecan + Vorinostat; first compound 6.325 µM)	relative viability (Irinotecan + Vorinostat; first compound 20 µM)	relative viability (MK-8033 + Vorinostat; first compound 0.02 µM)	relative viability (MK-8033 + Vorinostat; first compound 0.06325 µM)	relative viability (MK-8033 + Vorinostat; first compound 0.2 µM)	relative viability (MK-8033 + Vorinostat; first compound 0.6325 µM)	relative viability (MK-8033 + Vorinostat; first compound 2 µM)	relative viability (Irinotecan + Crizotinib; first compound 0.6325 µM)
EKVX	0.81	0.244	0.232		0.27	0.262	0.229		0.52	0.43	0.398	0.484	0.72	0.734	0.746	0.66	1.08
NCI-H2228	0.518	0.39	0.433					0.567	0.592	0.435	0.433	0.594	0.562	0.417	0.696	0.821	0.597
NCI-H596	0.924	0.741	0.68	1.06	0.842	0.85	1.49	0.587	0.639	0.728	0.737	0.59	0.629	0.549	0.64	0.568	0.945
NCI-H322M	0.405	0.42	0.316	0.602	0.725	0.548	0.342	0.734	0.886	0.732	0.32	1.04	0.774	0.829	0.966	0.888	0.475
NCI-H358	0.431	0.484	0.139	0.183	0.193	0.154	0.0968	0.455	0.246	0.167	0.135	0.79	0.503	0.579	0.712	0.614	0.497
NCI-H1648				0.501	0.469	0.446	0.428	0.379	0.423	0.355	0.279	0.591		0.3	0.718	0.629	
NCI-H1395					0.722	0.522	0.301		0.714	0.522	0.268	0.673	0.673	0.638	0.654	0.692	
NCI-H1993	0.656	0.671	0.664		0.581	0.542	0.6		0.529	0.584	0.612	0.688	0.644	0.587	0.571	0.638	0.897
CAL-12T	0.766	0.374	0.326					0.733	0.592	0.403	0.259	0.797	0.709	0.81	0.775	0.673	0.728
ChaGo-K-1	0.849	0.47	0.402	0.344	0.251	0.233	0.239	0.443	0.326	0.268	0.243	0.769	0.74	0.729	0.685	0.687	
NCI-H1299	0.794	0.453	0.173														0.747
COR-L23	0.289	0.204	0.1	0.314	0.336	0.192	0.104	0.169	0.184	0.199	0.0826	0.423	0.408	0.385	0.459	0.491	0.293
NCI-H2347	0.476	0.556	0.494	0.652	0.626	0.599	0.547	0.435	0.631	0.514	0.548	0.544	0.537	0.501	0.717	0.597	0.571
LU99A	0.286	0.251	0.229	0.196	0.184	0.157	0.169	0.305	0.169	0.124	0.127	0.511	0.495	0.565	0.53	0.433	0.281
COR-L 105	0.866	0.524	0.376	0.605	0.586	0.555	0.364	0.856	0.643	0.621	0.334	0.88	0.891	0.708	0.782	0.547	0.922
PC-3 [JPC-3]	0.493	0.332	0.331	0.805	0.927	0.655	0.365	0.625	0.914	0.411	0.419	0.886		0.77	0.924	0.817	0.847
NCI-H1703	0.58	0.447	0.182														0.737
NCI-H1792	1.05	0.536	0.239	0.405	0.522	0.287	0.228										0.918
NCI-H2342				0.732	0.789	0.68	0.436	0.955	0.911	0.836	0.356	0.859	0.728	0.643	0.79	0.731	
NCI-H522				0.605	0.492	0.577	0.636	0.734	0.727	0.59	0.65	0.796	0.741	0.829	0.895	0.942	
Calu-6	0.525	0.226	0.114														0.548
NCI-H1793					0.315	0.262	0.258		0.633	0.372	0.244	0.675		0.559	0.713	0.618	
